The values that follow come from US10195196B2, “1,4-disubstituted pyridazine analogs there of and methods for treating SMN-deficiency-related conditions” (NOVARTIS AG, priority 2012, dated 2019).

In general, EC50 refers to the concentration at which the effect is half-maximal. The low end stands for greater potency, the high end for weaker potency.

This experiment deals with SMN protein. As to the kind of experiment: cellular SMN ELISA (SMN protein elevation). The following applies: myoblast cell line from SMNdelta7 mouse model, 24 hours treatment; for SMN activity Fold: fold activation over DMSO control. The format is cell-based. In outline: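 Readout is fold SMN elevation versus DMSO plus EC50, measured by anti-SMN capture ELISA with 450 nm absorbance. Lysates came from a myoblast line of the SMNdelta7 mouse model after 24 h compound exposure, with dose ranges of 20 nM–10 μM (condition 1) or 100 pM–10 μM (condition 2).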
For orientation: ELISA stands for enzyme-linked immunosorbent assay.

[1] abbreviates: ELISA condition 2: compound concentration 100 pM-10 uM.
[2] abbreviates: ELISA condition 1: compound concentration range 20 nM-10 uM.

For `CC1(C)CC(Oc2ccc(-c3cc4ccc(O)cc4cc3O)nn2)CC(C)(C)N1` [Example 20-1, 3-(6-((2,2,6,6-tetramethylpiperidin-4-yl)oxy)pyridazin-3-yl)naphthalene-2,7-diol], under setting [1], the EC50 was 18 nM and the “SMN activity Fold” value came out at 2.75 Fold.
`CN(c1ccc(-c2cc3ccc(O)cc3cc2O)nn1)C1CC(C)(C)NC(C)(C)C1` [Example 20-2, 3-(6-(methyl(2,2,6,6-tetramethylpiperidin-4-yl)amino)pyridazin-3-yl)naphthalene-2,7-diol]: under setting [1], the EC50 is 4 nM and the “SMN activity Fold” value is 2.79 Fold.
On to `CC1(C)CC(Nc2ccc(-c3cc4ccc(O)cc4cc3O)nn2)CC(C)(C)N1` [Example 20-3, 3-(6-((2,2,6,6-tetramethylpiperidin-4-yl)amino)pyridazin-3-yl)naphthalene-2,7-diol], for which, under setting [1], the EC50 is 8 nM and the “SMN activity Fold” value was 3.42 Fold.
As to `CN(c1ccc(-c2cc3ccc(OCCCNC(=O)OC(C)(C)C)cc3cc2O)nn1)C1CC(C)(C)NC(C)(C)C1` [Example 20-4, [3-(7-hydroxy-6-{6-[methyl-(2,2,6,6-tetramethyl-piperidin-4-yl)-amino]-pyridazin-3-yl}-naphthalen-2-yloxy)-propyl]-carbamic acid tert-butyl ester], under setting [2], the concentration for a half-maximal effect (EC50) was determined as 310 nM and the “SMN activity Fold” value worked out at 2.32 Fold.
Consider `CN(c1ccc(-c2cc3ccc(OCCCN)cc3cc2O)nn1)C1CC(C)(C)NC(C)(C)C1` [Example 20-5, 7-(3-amino-propoxy)-3-{6-[methyl-(2,2,6,6-tetramethyl-piperidin-4-yl)-amino]-pyridazin-3-yl}-naphthalen-2-ol], for which, under setting [1], the EC50 was 6 nM and the “SMN activity Fold” value stood at 2.66 Fold.
As for `CC(=O)NCCCOc1ccc2cc(-c3ccc(N(C)C4CC(C)(C)NC(C)(C)C4)nn3)c(O)cc2c1` [Example 20-6, N-[3-(7-hydroxy-6-{6-[methyl-(2,2,6,6-tetramethyl-piperidin-4-yl)-amino]-pyridazin-3-yl}-naphthalen-2-yloxy)-propyl]-acetamide], under setting [1], a half-maximal effect (EC50) was put at 50 nM and the “SMN activity Fold” value was determined as 2.18 Fold.
In the case of `CN(c1ccc(-c2cc3ccc(OCCCO)cc3cc2O)nn1)C1CC(C)(C)NC(C)(C)C1` [Example 20-7, 7-(3-hydroxypropoxy)-3-(6-(methyl(2,2,6,6-tetramethylpiperidin-4-yl)amino)pyridazin-3-yl)naphthalen-2-ol], under setting [1], the response was half-maximal at 7 nM (EC50) and the “SMN activity Fold” value is listed as 2.75 Fold.
The matching figures for `COCCCOc1ccc2cc(-c3ccc(N(C)C4CC(C)(C)NC(C)(C)C4)nn3)c(O)cc2c1` [Example 20-8, 7-(3-methoxypropoxy)-3-(6-(methyl(2,2,6,6-tetramethylpiperidin-4-yl)amino)pyridazin-3-yl)naphthalen-2-ol]: 30 nM and 2.61 Fold.
Consider `CC1(C)CC(Oc2ccc(-c3cc4ccc(OCCN5CCOCC5)cc4cc3O)nn2)CC(C)(C)N1` [Example 20-9, 7-(2-morpholinoethoxy)-3-(6-((2,2,6,6-tetramethylpiperidin-4-yl)oxy)pyridazin-3-yl)naphthalen-2-ol], for which, under setting [1], the EC50 is 176 nM and the “SMN activity Fold” value came to 2.44 Fold.
Regarding `Oc1cc2ccccc2cc1-c1ccc(CC2CCNCC2)nn1` [Example 21-1, 3-(6-(piperidin-4-ylmethyl)pyridazin-3-yl)naphthalen-2-ol], under setting [1], the EC50 turned out to be 959 nM and the “SMN activity Fold” value is given as 2.35 Fold.
For `CC1(C)CC(Cc2ccc(-c3ccc(-n4cccn4)cc3O)nn2)CC(C)(C)N1` [Example 21-2, 5-(1H-pyrazol-1-yl)-2-(6-((2,2,6,6-tetramethylpiperidin-4-yl)methyl)pyridazin-3-yl)phenol], in that order: 206 nM and 2.69 Fold.
Regarding `C[C@H](O)[C@@H]1CC(Oc2ccc(-c3ccc(-n4cccn4)cc3O)nn2)CC(C)(C)N1` (stereo partly drawn) [Example 23-1], under setting [1], the EC50 was 3650 nM and the “SMN activity Fold” value worked out at 2.32 Fold.
On to `CN(c1ccc(-c2cc3ccc(C#N)cc3cc2O)nn1)C1CC(C)(C)NC(C)(C)C1` [Example 24-1, 7-hydroxy-6-(6-(methyl(2,2,6,6-tetramethylpiperidin-4-yl)amino)pyridazin-3-yl)-2-naphthonitrile], for which, under setting [1], a half-maximal effect (EC50) was put at 16 nM and the “SMN activity Fold” value turned out to be 3.14 Fold.
The matching figures for `CN(c1ccc(-c2cc3ccc(CN4CCCCC4)cc3cc2O)nn1)C1CC(C)(C)NC(C)(C)C1` [Example 24-2, 3-(6-(methyl(2,2,6,6-tetramethylpiperidin-4-yl)amino)pyridazin-3-yl)-7-(piperidin-1-ylmethyl)naphthalen-2-ol]: 157 nM and 2.33 Fold.
For `CN(c1ccc(-c2cc3ccc(CN4CCCC4)cc3cc2O)nn1)C1CC(C)(C)NC(C)(C)C1` [Example 24-3, 3-(6-(methyl(2,2,6,6-tetramethylpiperidin-4-yl)amino)pyridazin-3-yl)-7-(pyrrolidin-1-ylmethyl)naphthalen-2-ol], under setting [1], the concentration for a half-maximal effect (EC50) amounted to 120 nM and the “SMN activity Fold” value came out at 2.75 Fold.
Take `CN(c1ccc(-c2cc3ccc(O)c(Br)c3cc2O)nn1)C1CC(C)(C)NC(C)(C)C1` [Example 24-4, 1-bromo-6-(6-(methyl(2,2,6,6-tetramethylpiperidin-4-yl)amino)pyridazin-3-yl)naphthalene-2,7-diol]: under setting [1], a half-maximal effect (EC50) was put at 16 nM and the “SMN activity Fold” value is given as 3.06 Fold.
For `CN(c1ccc(-c2cc3ccc(O)c(Cl)c3cc2O)nn1)C1CC(C)(C)NC(C)(C)C1` [Example 24-5, 1-chloro-6-(6-(methyl(2,2,6,6-tetramethylpiperidin-4-yl)amino)pyridazin-3-yl)naphthalene-2,7-diol], in that order: 47 nM and 2.99 Fold.
`COc1ccc2cc(-c3ccc(N(C)C4CC(C)(C)NC(C)(C)C4)nn3)c(O)cc2c1` [Example 24-6, 7-methoxy-3-(6-(methyl(2,2,6,6-tetramethylpiperidin-4-yl)amino)pyridazin-3-yl)naphthalen-2-ol]: under setting [1], the midpoint of the response, the EC50, lay at 6 nM and the “SMN activity Fold” value is on record as 2.39 Fold.
As to `COc1ccc2cc(-c3ccc(N(C)C4CC(C)(C)N(C)C(C)(C)C4)nn3)c(O)cc2c1` [Example 24-7, 7-methoxy-3-(6-(methyl(1,2,2,6,6-pentamethylpiperidin-4-yl)amino)pyridazin-3-yl)naphthalen-2-ol], under setting [1], the response was half-maximal at 31 nM (EC50) and the “SMN activity Fold” value stood at 2.57 Fold.
Regarding `CN(c1ccc(-c2cc3ccc(C4=CCOCC4)cc3cc2O)nn1)C1CC(C)(C)NC(C)(C)C1` [Example 24-8, 7-(3,6-dihydro-2H-pyran-4-yl)-3-(6-(methyl(2,2,6,6-tetramethylpiperidin-4-yl)amino)pyridazin-3-yl)naphthalen-2-ol], under setting [1], the midpoint of the response, the EC50, lay at 7 nM and the “SMN activity Fold” value is 2.39 Fold.
For `CN(c1ccc(-c2cc3ccc(C4CCOCC4)cc3cc2O)nn1)C1CC(C)(C)NC(C)(C)C1` [Example 24-9, 3-(6-(methyl(2,2,6,6-tetramethylpiperidin-4-yl)amino)pyridazin-3-yl)-7-(tetrahydro-2H-pyran-4-yl)naphthalen-2-ol], in that order: 338 nM and 2.65 Fold.
